Experimental data published in PMC3784351 (Cancer chemotherapy and pharmacology, 2013).

T1: proton-coupled folate transporter (PCFT) (Homo sapiens, UniProt Q96NT5)
T1 sequence (Q96NT5 1-459): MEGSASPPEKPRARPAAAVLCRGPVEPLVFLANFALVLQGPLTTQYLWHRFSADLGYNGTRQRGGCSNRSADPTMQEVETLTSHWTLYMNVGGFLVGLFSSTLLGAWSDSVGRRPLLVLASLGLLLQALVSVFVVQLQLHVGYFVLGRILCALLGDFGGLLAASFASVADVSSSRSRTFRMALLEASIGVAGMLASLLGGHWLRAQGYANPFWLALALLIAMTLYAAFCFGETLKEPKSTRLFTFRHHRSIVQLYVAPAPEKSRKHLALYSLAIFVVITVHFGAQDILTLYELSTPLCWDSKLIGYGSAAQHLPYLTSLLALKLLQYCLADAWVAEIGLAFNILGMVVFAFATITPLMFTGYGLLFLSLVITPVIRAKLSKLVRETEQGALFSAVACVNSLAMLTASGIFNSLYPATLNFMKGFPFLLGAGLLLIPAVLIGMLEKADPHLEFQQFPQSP

B1: reduced folate carrier (RFC) (Homo sapiens) (protein)
chain: MVPSSPAVEKQVPVEPGPDPELRSWRHLVCYLCFYGFMAQIRPGESFITPYLLGPDKNFTREQVTNEITPVLSYSYLAVLVPVFLLTDYLRYTPVLLLQGLSFVSVWLLLLLGHSVAHMQLMELFYSVTMAARIAYSSYIFSLVRPARYQRVAGYSRAAVLLGVFTSSVLGQLLVTVGRVSFSTLNYISLAFLTFSVVLALFLKRPKRSLFFNRDDRGRCETSASELERMNPGPGGKLGHALRVACGDSVLARMLRELGDSLRRPQLRLWSLWWVFNSAGYYLVVYYVHILWNEVDPTTNSARVYNGAADAASTLLGAITSFAAGFVKIRWARWSKLLIAGVTATQAGLVFLLAHTRHPSSIWLCYAAFVLFRGSYQFLVPIATFQIASSLSKELCALVFGVNTFFATIVKTIITFIVSDVRGLGLPVRKQFQLYSVYFLILSIIYFLGAMLDGLRHCQRGHHPRQPPAQGLRSAAEEKAAQALSVQDKGLGGLQPAQSPPLSPEDSLGAVGPASLEQRQSDPYLAQAPAPQAAEFLSPVTTPSPCTLCSAQASGPEAADETCPQLAVHPPGVSKLGLQCLPSDGVQNVNQ

Assays:
[1] = target: T1, proton-coupled folate transporter (PCFT); test: tritiated influx in HeLa R1-PCFT versus R1-11 cells; format: cell-based
[2] = substrate: C#CCC(Cc1cnc2nc(N)nc(N)c2n1)c1ccc(C(=O)N[C@@H](CCC(=O)O)C(=O)O)cc1; test: cells, lysate or membranes; settings: pH 7.4

| Molecule | tritiated influx in HeLa R1-PCFT versus R1-11 cells (poor substrate) [1] | Km [2] [µM] |
| --- | --- | --- |
| C#CCC(Cc1cnc2nc(N)nc(N)c2n1)c1ccc(C(=O)N[C@@H](CCC(=O)O)C(=O)O)cc1 (some centres unmarked) [pralatrexate] | among the antifolates tested, pralatrexate was the poorest substrate for PCFT |  |
| B1 |  | 0.52 ± 0.2 |
